# Assay results taken from patent US6737383B1, “Herbicidal oxadiazolidines” (priority 1999, dated 2004).
# Tests used:
# [1] = test system: soybean; assay: Test B pre/postemergence soybean; type: in vivo, Glycine max
# In short: (§1)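 Herbicidal effect was estimated by eye on a ten-point control scale after plants spent twelve to sixteen days in a greenhouse following soil or foliar treatment. Foliar sprays targeted plants at one to four leaves; all doses were formulated in a non-phytotoxic solvent with surfactant.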
# [2] = test system: giant foxtail; assay: Test B pre/postemergence giant foxtail; type: in vivo, Setaria faberii
# In short: as §1
# [3] = test system: morningglory; assay: Test B pre/postemergence morningglory; type: in vivo, Ipomoea hederacea
# In short: as §1
# [4] = test system: rice; assay: Test B flood test rice; type: in vivo, Oryza sativa
# In short: (§2)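 Plants were grown to the 2-leaf stage before treatment with test chemical, then held in a greenhouse for twelve to sixteen days. Injury was visually rated against untreated controls on a 0–10 scale, where 0 is no effect and 10 is complete control.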
# [5] = test system: rape; assay: Test B pre/postemergence rape; type: in vivo, Brassica napus
# In short: as §1
# [6] = test system: smallflower flatsedge; assay: Test B flood test smallflower flatsedge; type: in vivo, Cyperus difformis
# In short: as §2
# [7] = test system: blackgrass; assay: Test B pre/postemergence blackgrass; type: in vivo, Alopecurus myosuroides
# In short: as §1
# [8] = test system: wild oat; assay: Test B pre/postemergence wild oat; type: in vivo, Avena fatua
# In short: as §1
# [9] = test system: purple nutsedge; assay: Test B pre/postemergence purple nutsedge; type: in vivo, Cyperus rotundus
# In short: as §1
# [10] = test system: bedstraw; assay: Test B pre/postemergence bedstraw; type: in vivo, Galium aparine
# In short: as §1
# [11] = test system: duck salad; assay: Test B flood test duck salad; type: in vivo, Heteranthera limosa
# In short: as §2
# [12] = test system: wheat; assay: Test B pre/postemergence wheat; type: in vivo, Triticum aestivum
# In short: as §1
# [13] = test system: pigweed; assay: Test B pre/postemergence pigweed; type: in vivo, Amaranthus retroflexus
# In short: as §1
# [14] = test system: bamyardgrass; assay: Test B flood test barnyardgrass; type: in vivo, Echinochloa crus-galli
# In short: as §2
# [15] = test system: sugar beet; assay: Test B pre/postemergence sugar beet; type: in vivo, Beta vulgaris
# In short: as §1
# [16] = test system: velvetleaf; assay: Test B pre/postemergence velvetleaf; type: in vivo, Abutilon theophrasti
# In short: as §1
# [17] = Postemergence, Rate 62 g/ha, scale 0 to 10, 0 is no effect, 10 is complete control
# [18] = Postemergence, Rate 125 g/ha, scale of 0 to 10 where 0 is no effect and 10 is complete control
# [19] = Preemergence, Rate 125 g/ha, scale of 0 to 10 where 0 is no effect and 10 is complete control
# [20] = Preemergence, Rate 250 g/ha, scale 0 (no effect) to 10 (complete control)
# [21] = Rate 62 g/ha, Preemergence, scale 0 to 10
# [22] = Rate 250 g/ha, Postemergence, scale 0 to 10, 0 is no effect, 10 is complete control
# [23] = Rate 500 g/ha, Postemergence, scale 0 to 10, 0 is no effect, 10 is complete control
# [24] = Rate 500 g/ha, Preemergence, scale 0 to 10 (0 no effect, 10 complete control)
# [25] = Pre-emergence, Rate 62 g/ha, scale 0 to 10, 0 is no effect, 10 is complete control
# [26] = Rate 125 g/ha, Pre-emergence section (flood test species), scale 0 to 10, 0 no effect, 10 complete control
# [27] = Rate 250 g/ha, Pre-emergence (flood test species), scale 0 to 10, 0 is no effect, 10 is complete control
# [28] = Rate 500 g/ha, Pre-emergence section of Table B, 0 to 10 scale (0 no effect, 10 complete control)
smiles,measurement,setting,value
CC(C)N(C(=O)n1oc(=O)n(CCN(C)C(=O)c2ccccc2)c1=O)c1ccc(F)cc1 [Compound 741],"Plant response rating, Soybean",[1]; [17],2
same,Soybean plant response rating,[1]; [18],2
same,"Plant response rating, Soybean",[1]; [19],0
same,Soybean plant response rating,[1]; [20],0
same,Soybean plant response rating,[1]; [21],0
same,Soybean plant response rating,[1]; [22],3
same,Soybean plant response rating,[1]; [23],3
same,Soybean plant response rating,[1]; [24],0
same,"Plant response rating, Giant foxtail",[2]; [17],0
same,Giant foxtail plant response rating,[2]; [18],0
same,"Plant response rating, Giant foxtail",[2]; [19],2
same,Giant foxtail plant response rating,[2]; [20],9
same,Giant foxtail plant response rating,[2]; [21],0
same,Giant foxtail plant response rating,[2]; [22],3
same,Giant foxtail plant response rating,[2]; [23],4
same,Giant foxtail plant response rating,[2]; [24],10
same,Morningglory plant response rating,[3]; [18],1
same,"Plant response rating, Morningglory",[3]; [19],0
same,Morningglory plant response rating,[3]; [20],0
same,Morningglory plant response rating,[3]; [21],0
same,Morningglory plant response rating,[3]; [22],5
same,Morningglory plant response rating,[3]; [23],3
same,Morningglory plant response rating,[3]; [24],0
same,Rice plant response rating,[4]; [25],0
same,Rice plant response rating,[4]; [26],0
same,Rice plant response rating,[4]; [27],0
same,Rice plant response rating,[4]; [28],0
same,"Plant response rating, Rape",[5]; [17],0
same,Rape plant response rating,[5]; [18],0
same,"Plant response rating, Rape",[5]; [19],0
same,Rape plant response rating,[5]; [20],0
same,Rape plant response rating,[5]; [21],0
same,Rape plant response rating,[5]; [22],0
same,Rape plant response rating,[5]; [23],0
same,Rape plant response rating,[5]; [24],0
same,S. Flatsedge plant response rating,[6]; [25],0
same,S. Flatsedge plant response rating,[6]; [26],0
same,S. Flatsedge plant response rating,[6]; [27],0
same,S. Flatsedge plant response rating,[6]; [28],8
same,"Plant response rating, Blackgrass",[7]; [17],0
same,Blackgrass plant response rating,[7]; [18],0
same,"Plant response rating, Blackgrass",[7]; [19],0
same,Blackgrass plant response rating,[7]; [20],0
same,Blackgrass plant response rating,[7]; [21],0
same,Blackgrass plant response rating,[7]; [22],0
same,Blackgrass plant response rating,[7]; [23],0
same,Blackgrass plant response rating,[7]; [24],0
same,"Plant response rating, Wild oats",[8]; [17],0
same,Wild oats plant response rating,[8]; [18],0
same,"Plant response rating, Wild oats",[8]; [19],0
same,Wild oats plant response rating,[8]; [20],0
same,Wild oats plant response rating,[8]; [21],0
same,Wild oats plant response rating,[8]; [22],3
same,Wild oats plant response rating,[8]; [24],7
same,"Plant response rating, Nutsedge",[9]; [17],0
same,Nutsedge plant response rating,[9]; [18],0
same,"Plant response rating, Nutsedge",[9]; [19],0
same,Nutsedge plant response rating,[9]; [20],0
same,Nutsedge plant response rating,[9]; [21],0
same,Nutsedge plant response rating,[9]; [22],0
same,Nutsedge plant response rating,[9]; [23],0
same,Nutsedge plant response rating,[9]; [24],0
same,"Plant response rating, Bedstraw",[10]; [17],0
same,Bedstraw plant response rating,[10]; [18],0
same,"Plant response rating, Bedstraw",[10]; [19],0
same,Bedstraw plant response rating,[10]; [20],0
same,Bedstraw plant response rating,[10]; [21],0
same,Bedstraw plant response rating,[10]; [22],4
same,Bedstraw plant response rating,[10]; [23],9
same,Bedstraw plant response rating,[10]; [24],5
same,Ducksalad plant response rating,[11]; [25],0
same,Ducksalad plant response rating,[11]; [26],0
same,Ducksalad plant response rating,[11]; [27],0
same,Ducksalad plant response rating,[11]; [28],0
same,"Plant response rating, Wheat",[12]; [17],0
same,Wheat plant response rating,[12]; [18],0
same,"Plant response rating, Wheat",[12]; [19],0
same,Wheat plant response rating,[12]; [20],0
same,Wheat plant response rating,[12]; [21],0
same,Wheat plant response rating,[12]; [22],0
same,Wheat plant response rating,[12]; [23],3
same,Wheat plant response rating,[12]; [24],4
same,"Plant response rating, Redroot pigweed",[13]; [17],3
same,Redroot pigweed plant response rating,[13]; [18],7
same,"Plant response rating, Redroot pigweed",[13]; [19],0
same,Redroot pigweed plant response rating,[13]; [20],0
same,Redroot pigweed plant response rating,[13]; [21],0
same,Redroot pigweed plant response rating,[13]; [22],7
same,Redroot pigweed plant response rating,[13]; [23],7
same,Redroot pigweed plant response rating,[13]; [24],7
same,Barnyardgrass plant response rating,[14]; [25],0
same,Barnyardgrass plant response rating,[14]; [26],0
same,Barnyardgrass plant response rating,[14]; [27],0
same,Barnyardgrass plant response rating,[14]; [28],0
same,"Plant response rating, Sugarbeets",[15]; [17],0
same,Sugarbeets plant response rating,[15]; [18],0
same,"Plant response rating, Sugarbeets",[15]; [19],0
same,Sugarbeets plant response rating,[15]; [20],0
same,Sugarbeets plant response rating,[15]; [21],0
same,Sugarbeets plant response rating,[15]; [22],4
same,Sugarbeets plant response rating,[15]; [23],4
same,Sugarbeets plant response rating,[15]; [24],4
same,"Plant response rating, Velvetleaf",[16]; [17],0
same,Velvetleaf plant response rating,[16]; [18],0
same,"Plant response rating, Velvetleaf",[16]; [19],3
same,Velvetleaf plant response rating,[16]; [20],3
same,Velvetleaf plant response rating,[16]; [21],0
same,Velvetleaf plant response rating,[16]; [22],0
same,Velvetleaf plant response rating,[16]; [23],1
same,Velvetleaf plant response rating,[16]; [24],3
